Measured values published in patent US20100247564A1, “METHODS AND COMPOSITIONS FOR THE USE OF SARGASSUM FUSIFORME FOR THE INHIBITION OF HIV-1 INFECTION” (priority 2007, published 2010).
Where two headings read alike, the source gives them in different places.

Assays:
[1] = tested on: cell fusion (anti-HIV activity); assay: Inhibition of cell fusion by individual fatty acids; type: cell-based; conditions: Human immunodeficiency virus 1, read-out: percentage of inhibition of cell fusion; for inhibition at 1 µg/mL: 1 μg/ml; for inhibition at 5 µg/mL: 5 μg/ml
Procedure: Anti-HIV activity of the individual fatty acids was tested at four different concentrations. The values given in Table 1 represent the percentage of inhibition of cell fusion in the presence of each fatty acid.

sCD4 [2] = molecular target: T1, sCD4 (Homo sapiens, UniProt P01730); assay: Saturation transfer difference NMR (STD-NMR) binding to sCD4; conditions: NMR buffer with 20% d6-DMSO, room temperature
T1 construct: soluble CD4 (sCD4) protein; purchased Progenics Pharmaceuticals
Procedure: FIGS. 15A-E show in vitro binding experiments of sCD4 with PA. FIG. 15A is a homonuclear NMR spectrum of 100 μM PA in the NMR buffer (10 mM KPO4 buffer, pH 7.0, 20% d6-DMSO, and 80% D2O). […] Tryptophan fluorescence was measured using an excitation wavelength of 280 nm. An increase of PA causes a red shift of 2 nm and quenching of the tryptophan fluorescence of sCD4.
We used a one-dimensional saturation transfer difference NMR (STD-NMR) experiment to characterize the binding of PA to sCD4 in vitro. […]
To perform the STD-NMR experiment, we used commercially available sCD4 (200 μg, 4.4 nmol, Progenics Pharmaceuticals), which was exchanged into the NMR buffer (160 μl of D2O and 40 μl d6-DMSO, containing 10 mM KPO4 buffer, pH 7.0). […] The NMR data were processed and analyzed using Topspin 2.0 (Bruker).
During the STD-NMR experiment, we titrated increasing concentrations of PA into sCD4 solution, and observed PA binding to sCD4, as shown by an increase in the intensity of the ligand STD-NMR signal (FIGS. 15A and 15B). The intensity of the STD signal was quantified by calculating the difference between the intensity of one signal in the off-resonance NMR spectrum, or reference NMR spectrum (I0), and the intensity of a signal in the on-resonance NMR spectrum (Isat) for various concentrations of the ligand (FIG. 15C). […]

recombinant HIV-1 RT = molecular target: T2, recombinant HIV-1 RT (Human immunodeficiency virus type 1 group M subtype B, UniProt P04585); assay: Cell-free fluorescent reverse transcriptase (RT) assay; type: biochemical; conditions: 2-fold serial dilutions, two units recombinant HIV-1 RT
T2 construct: recombinant HIV-1 RT; purchased Ambion

BlaM-Vpr-X4-tropic NL4-3 = assay: microbe, parasite or virus in culture; type: cell-based, HIV-1
[3] = tested on: CXCR4 tropic HIV-1 (NL4-3); assay: HIV-1 (NL4-3) replication in 1G5 T cells, luciferase expression; type: cell-based
[4] = tested on: primary CCR5-tropic isolate ADA; assay: HIV-1 ADA infection of microglia, p24 ELISA; conditions: Human immunodeficiency virus 1, Microglia, 72 h
Procedure: Either macrophages (A) or microglia (B) were treated for 24 hours with 1 mg/ml S. fusiforme or with 10^−6 M ddC, infected with primary CCR5-tropic isolate ADA at 0.2 pg of p24/cell for 2 hours, washed 3 times, and returned to culture. At the indicated time points after infection, HIV-1 expression was monitored by p24 production in cell-free supernatants by ELISA and the percent inhibition was calculated and plotted on the Y-axis.
Next, we treated fetal microglial cell cultures with either 1 mg/ml of S. fusiforme or 10^−6 M ddC and monitored infection kinetics by p24 production in cell-free supenatants at the indicated time points after infection (FIG. 5B).

[5] = tested on: HIV-1 (NL4-3) cell-to-cell fusion; assay: Cell-to-cell infection and syncytia formation in co-culture (infected CEM/1G5; infected 1G5/GHOST); conditions: only 10^−6 M ddC
1G5 T cells = assay: Viability of HIV-1 infected 1G5 T cells (MTT uptake, trypan blue exclusion); type: cell-based; conditions: 10^−6 M ddC
Procedure: FIGS. 2A-B show the dose response of HIV-1 inhibition and cell viability in T cells treated with S. fusiforme. […] The cells were washed 3 times and then returned to culture. On day 3 after infection, intracellular luciferase gene marker expression was measured from cell lysates adjusted to the same number of viable cells using an MTT assay (A).
FIGS. 3A-B show the time course of HIV-1 inhibition and viability in T cells. […] Cell viability was determined by trypan blue exclusion assay (B).
Next, we investigated the ability of S. fusiforme extracts to inhibit HIV-1 infection in 1G5 T cells. […] On day 3 after infection, equal numbers of viable cells were analyzed for intracellular luciferase expression and cell viability was measured using an MTT uptake assay (FIG. 2). HIV-1 inhibition was calculated by comparing treated and untreated cell cultures (both infected with HIV-1). […] Treatment with ddC blocked virus replication by over 98%. In parallel, we tested for MTT uptake by viable cells, which remained high regardless of the concentration of S. fusiforme extract used in treatment (FIG. 2B).
Infection was monitored by luciferase expression at specific time points after infection (FIG. 3A). […] Treatment with 2 mg/ml of S. fusiforme inhibited infection by 77, 99, and 99% on days 3, 5, and 7, respectively (FIG. 3A). Inhibition by ddC was 99% at each time point tested. […]

sCD4 [6] = molecular target: T1, sCD4; assay: Dot blot binding of 14C-labeled PA to sCD4; conditions: 100 μM 14C-PA, increasing concentrations of sCD4
Procedure: (§1) FIGS. 14A-C show the inhibition of HIV-1 fusion and CD4 interaction upon PA treatment. […] The percent of infected cells is indicated inside each quadrant. Cells were loaded with CCF2/AM dye and fusion was analyzed by multiparameter flow cytometry using a violet laser for excitation of CCF, and gated from 10,000 cells. […] The percent inhibition was plotted on the y-axis. […] The dot-blot membrane was washed and exposed to film, which was then scanned and the dot-blot total pixel mean value (intensity*mm^2) was quantified and plotted on the y-axis.
(§2) To further test this hypothesis and reveal a possible physical interaction between PA and sCD4, we performed dot blot analysis with ^14C-labeled PA (^14C-PA) incubated together with increasing concentrations of sCD4, ubiquitin, or S100A12 proteins (FIG. 14C). PVDF membrane (BioRad) was pretreated with 100 μM PA for 1 hour at room temperature (RT). Indicated concentrations of each protein in 10 μl/well were run through the vacuum of the dot blot apparatus. The membrane was then incubated with 100 μM ^14C-labeled PA (^14C-PA) in 33% ethanol for 1 hour at room temperature, and then washed in 33% ethanol and exposed to film. Blot total pixel mean value intensity was quantified by Quantity One 4.6.1 software (BioRad).

ubiquitin = ubiquitin (Homo sapiens, UniProt P0CG47); assay: Dot blot binding of 14C-labeled PA to ubiquitin; conditions: 100 μM 14C-PA
Procedure: as §1, §2

S100A12 = molecular target: T3, S100A12 (Homo sapiens, UniProt P80511); assay: Dot blot binding of 14C-labeled PA to S100A12; conditions: 100 μM 14C-PA
T3 sequence (P80511 1-92): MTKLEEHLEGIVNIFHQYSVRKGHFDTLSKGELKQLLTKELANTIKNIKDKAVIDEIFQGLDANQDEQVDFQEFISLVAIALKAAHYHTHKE
Procedure: as §1, §2

[7] = Human immunodeficiency virus 1, NL43, SUP-T1, read-out: inhibition of fusion

Q: How did the inhibition at 1 µg/mL [1] turn out when `CCCCCCCCCCCCCC(=O)O` [Myristic acid, myristic acid] was run?
A: Its inhibition at 1 µg/mL is 8.8%.

Q: And the inhibition at 5 µg/mL [1]?
A: Its inhibition at 5 µg/mL is 26.4%.

Q: What about the “STD-NMR signal on titration into sCD4 solution” value (sCD4 [2]) of the same compound?
A: The value was “No STD-NMR signal was observed”.

Q: Which inhibition at 1 µg/mL [1] does the source give for `CCCCC/C=C\C/C=C\CCCCCCCC(=O)O` [Linoleic acid, linoleic acid] here?
A: Its inhibition at 1 µg/mL is 0%.

Q: And the inhibition at 5 µg/mL [1]?
A: Its inhibition at 5 µg/mL is 0%.

Q: What about the “RT inhibition (in words)” value (recombinant HIV-1 RT) of the same compound?
A: The value was “potent RT inhibitors”.

Q: Which fusion positive cells (BlaM-Vpr-X4-tropic NL4-3; 250 nM AMD3100, 51.5% without treatment) does the source give for `c1cc(CN2CCCNCCNCCCNCC2)ccc1CN1CCCNCCNCCCNCC1` [AMD3100, reference compound] here?
A: The fusion positive cells was 28.7%.

Q: What about the virus-positive cells (BlaM-Vpr-X4-tropic NL4-3; AMD3100 in the PA experiment, 37.6% untreated) of the same compound?
A: The virus-positive cells was 2.8%.

Q: What about the inhibition at 0.25 µM (BlaM-Vpr-X4-tropic NL4-3; [7]) of the same compound?
A: The inhibition at 0.25 µM was 44.5%.

Q: And the inhibition at 0.5 µM (BlaM-Vpr-X4-tropic NL4-3; [7])?
A: The inhibition at 0.5 µM was 80%.

Q: `CCCCCCCC/C=C\CCCCCCCC(=O)O` [Oleic acid, oleic acid] was tested. Which inhibition at 1 µg/mL [1] did it give?
A: The inhibition at 1 µg/mL was 0%.

Q: What about the inhibition at 5 µg/mL [1] of the same compound?
A: The inhibition at 5 µg/mL was 0%.

Q: What about the “RT inhibition (in words)” value (recombinant HIV-1 RT) of the same compound?
A: The value was “potent RT inhibitors”.

Q: Which virus replication blocked ([3]; 10^−6 M ddC, day 3 after infection) does the source give for `Nc1ccn([C@H]2CC[C@@H](CO)O2)c(=O)n1` [ddC, 2′,3′-didoxycytidine] here?
A: Its virus replication blocked is “over 98%”.

Q: What about the inhibition at 1 µM ([3]; Human immunodeficiency virus 1, NL43, T-cell, read-out: inhibition of infection) of the same compound?
A: Its inhibition at 1 µM is 99%.

Q: What about the luciferase expression ([3]; ddC control culture, mock-treated 29,601 RLU) of the same compound?
A: Its luciferase expression is 587 RLU.

Q: What about the inhibition at 1 µM ([4]; read-out: virus inhibition, 10^−6 M ddC, after day 3) of the same compound?
A: Its inhibition at 1 µM is greater than 90%.

Q: What about the inhibition at 1 µM ([4]; read-out: virus inhibition, 10^−6 M ddC, day 3) of the same compound?
A: The inhibition at 1 µM was 72%.

Q: What about the “inhibition of luciferase expression” value [5] of the same compound?
A: The value was 69%.

Q: And the “cell viability compared with S. fusiforme-treated cultures” value (1G5 T cells)?
A: The value was “similar”.

Q: Which “binding to sCD4 (dot blot)” value (sCD4 [6]) does the source give for `CCCCCCCCCCCCCCCC(=O)O` [^14C-PA] here?
A: The value was “dose-dependent”.

Q: And the “binding to ubiquitin (dot blot)” value (ubiquitin)?
A: Its value is “did not bind”.

Q: What about the “binding to S100A12 (dot blot)” value (S100A12) of the same compound?
A: Its value is “did not bind”.
